Assay results from patent publication US11492335B2, “Aryl or heteroaryl triazolone derivatives or salts thereof, or pharmaceutical compositions comprising the same” (YUHAN CORPORATION, priority 2018, dated 2022).
Where a name gives a salt, the structure may show the parent alone. Read-outs that look alike come from different tables or passages of the source.

Key:
Assay type in all cases: biochemical
[1] = target: T1, recombinant human MAO-B (monoamine oxidase-B) (Homo sapiens, UniProt P27338); experiment: Activity on recombinant human MAO-B, Amplex Red method, 1 mM benzylamine substrate; details: read-out: Inhibitory Activity (IC50, nM) MAO-B
T1 construct: purchased Sigma-Aldrich
T1 sequence (P27338 1-520): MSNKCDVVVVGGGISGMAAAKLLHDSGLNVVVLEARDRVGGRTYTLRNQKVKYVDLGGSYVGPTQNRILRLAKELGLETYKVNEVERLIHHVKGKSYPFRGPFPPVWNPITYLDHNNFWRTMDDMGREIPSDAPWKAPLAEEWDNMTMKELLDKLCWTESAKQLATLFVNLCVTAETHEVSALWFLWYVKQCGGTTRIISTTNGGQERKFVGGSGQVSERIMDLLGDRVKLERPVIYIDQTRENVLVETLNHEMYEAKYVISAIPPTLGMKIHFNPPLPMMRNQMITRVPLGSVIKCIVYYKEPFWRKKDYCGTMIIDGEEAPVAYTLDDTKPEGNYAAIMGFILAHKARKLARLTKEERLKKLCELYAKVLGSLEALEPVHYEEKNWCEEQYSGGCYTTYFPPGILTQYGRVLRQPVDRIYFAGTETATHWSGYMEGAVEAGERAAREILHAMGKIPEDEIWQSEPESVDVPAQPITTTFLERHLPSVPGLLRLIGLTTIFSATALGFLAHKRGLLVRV
Method in brief: (§1)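 Enzyme preincubated with compound 30 min at 37 °C in 50 mM sodium phosphate pH 7.4, final DMSO below 1%. Substrate was 0.5 mM tyramine for MAO-A and 1 mM benzylamine for MAO-B, with 200 uM Amplex Red and 1 U/mL HRP. H2O2-coupled resorufin fluorescence (ex 544/em 590) followed over 1–2 h; 8-point 4-parameter IC50.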

[2] = target: T2, recombinant human DAO (diamine oxidase) (Homo sapiens, UniProt P19801); experiment: Activity on recombinant human DAO, Amplex Red method, 1 mM putrescine substrate; details: recombinant human DAO, read-out: Inhibitory Activity (IC50, nM) DAO
T2 construct: purchased R&D systems
T2 sequence (P19801 20-751): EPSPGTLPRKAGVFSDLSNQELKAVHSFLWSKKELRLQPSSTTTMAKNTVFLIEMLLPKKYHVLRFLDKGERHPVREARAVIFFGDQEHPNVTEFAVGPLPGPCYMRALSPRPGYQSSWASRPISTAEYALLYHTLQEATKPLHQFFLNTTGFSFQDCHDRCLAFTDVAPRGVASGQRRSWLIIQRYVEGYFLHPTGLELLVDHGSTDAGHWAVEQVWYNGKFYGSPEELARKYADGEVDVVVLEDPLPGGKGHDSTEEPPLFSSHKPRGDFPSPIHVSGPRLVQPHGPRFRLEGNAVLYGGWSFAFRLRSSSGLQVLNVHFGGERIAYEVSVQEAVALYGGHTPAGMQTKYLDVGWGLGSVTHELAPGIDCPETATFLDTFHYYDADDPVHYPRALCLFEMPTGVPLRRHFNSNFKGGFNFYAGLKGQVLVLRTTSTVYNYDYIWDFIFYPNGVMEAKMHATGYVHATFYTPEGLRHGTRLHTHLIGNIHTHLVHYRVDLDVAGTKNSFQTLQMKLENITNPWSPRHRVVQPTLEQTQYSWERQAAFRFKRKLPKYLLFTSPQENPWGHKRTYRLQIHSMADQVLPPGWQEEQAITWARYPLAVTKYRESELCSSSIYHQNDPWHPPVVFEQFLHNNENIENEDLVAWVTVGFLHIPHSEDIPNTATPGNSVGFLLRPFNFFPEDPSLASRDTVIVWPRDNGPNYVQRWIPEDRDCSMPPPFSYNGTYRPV
Method in brief: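 Inhibition of recombinant human DAO (diamine oxidase, R&D systems) was assessed with the Amplex Red Hydrogen Peroxide Assay Kit. Hydrogen peroxide produced from 1 mM putrescine was detected through an HRP-coupled reaction that converts Amplex Red into fluorescent resorufin, read at 544 nm excitation and 590 nm emission. IC50 values came from four-parameter logistic fits in GraphPad Prism.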

recombinant human VAP-1 = target: T3, recombinant human VAP-1 (Homo sapiens, UniProt Q16853); experiment: Activity on recombinant human VAP-1, Amplex Red HRP-coupled hydrogen peroxide assay, benzylamine substrate; details: recombinant human VAP-1, benzylamine substrate, read-out: Inhibitory Activity (IC50, nM) human VAP-1
T3 construct: purchased R&D systems
T3 sequence (Q16853 1-763): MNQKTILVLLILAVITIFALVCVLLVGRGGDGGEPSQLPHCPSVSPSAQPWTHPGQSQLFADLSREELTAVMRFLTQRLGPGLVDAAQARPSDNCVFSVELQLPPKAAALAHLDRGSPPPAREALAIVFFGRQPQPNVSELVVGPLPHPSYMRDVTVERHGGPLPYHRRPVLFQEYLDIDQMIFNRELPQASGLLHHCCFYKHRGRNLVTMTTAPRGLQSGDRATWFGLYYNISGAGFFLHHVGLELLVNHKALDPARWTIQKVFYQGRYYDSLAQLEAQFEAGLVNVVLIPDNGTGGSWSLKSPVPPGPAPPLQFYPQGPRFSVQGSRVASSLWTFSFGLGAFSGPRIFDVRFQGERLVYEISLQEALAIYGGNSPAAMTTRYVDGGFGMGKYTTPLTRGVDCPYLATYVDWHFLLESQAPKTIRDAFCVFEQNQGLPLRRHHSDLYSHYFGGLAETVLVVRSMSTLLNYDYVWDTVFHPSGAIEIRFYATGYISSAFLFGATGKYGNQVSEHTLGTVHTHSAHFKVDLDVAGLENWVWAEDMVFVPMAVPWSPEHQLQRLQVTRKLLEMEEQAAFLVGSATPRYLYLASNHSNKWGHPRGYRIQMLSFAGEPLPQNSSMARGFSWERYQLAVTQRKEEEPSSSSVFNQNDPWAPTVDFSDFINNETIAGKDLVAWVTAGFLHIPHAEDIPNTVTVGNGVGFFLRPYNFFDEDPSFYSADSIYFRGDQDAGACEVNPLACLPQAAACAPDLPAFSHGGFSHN
Method in brief: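 Enzyme in 50 mM sodium phosphate pH 7.4 preincubated with compound 30 min at 37 °C, then 1 mM benzylamine, 200 µM Amplex Red and 1 U/mL HRP added. H2O2-derived resorufin fluorescence (ex 544/em 590 nm) followed over 1–2 h; signal-rate decrease versus DMSO control, 8-point curve, four-parameter logistic IC50.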

[3] = target: T4, recombinant human MAO-A (monoamine oxidase-A) (Homo sapiens, UniProt P21397); experiment: Activity on recombinant human MAO-A, Amplex Red method, 0.5 mM tyramine substrate; details: read-out: Inhibitory Activity (IC50, nM) MAO-A
T4 construct: purchased Sigma-Aldrich
T4 sequence (P21397 1-527): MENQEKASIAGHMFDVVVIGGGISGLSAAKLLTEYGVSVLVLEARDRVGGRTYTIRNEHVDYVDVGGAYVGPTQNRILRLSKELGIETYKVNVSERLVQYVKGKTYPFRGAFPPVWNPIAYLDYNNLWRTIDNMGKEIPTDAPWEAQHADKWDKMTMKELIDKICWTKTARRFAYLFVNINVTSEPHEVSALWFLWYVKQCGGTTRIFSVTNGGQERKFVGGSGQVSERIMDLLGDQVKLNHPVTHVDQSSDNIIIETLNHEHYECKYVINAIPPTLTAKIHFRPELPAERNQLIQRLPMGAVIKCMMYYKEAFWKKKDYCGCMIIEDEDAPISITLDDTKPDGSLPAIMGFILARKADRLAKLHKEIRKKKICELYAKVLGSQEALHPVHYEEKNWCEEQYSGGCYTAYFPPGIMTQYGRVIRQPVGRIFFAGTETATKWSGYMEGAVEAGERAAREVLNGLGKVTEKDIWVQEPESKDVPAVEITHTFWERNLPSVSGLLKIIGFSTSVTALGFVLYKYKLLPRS
Method in brief: as §1

[4] = 1 mM putrescine, * = between 10 and 100 nM, ** = between 300 and 1000 nM

| Structure (SMILES) | IC50 ([1]; 1 mM benzylamine) | IC50 [2, 4] | IC50 (recombinant human VAP-1; 30 min preincubation at 37° C.) | IC50 ([3]; 0.5 mM tyramine) | IC50 ([1]; 1 mM benzylamine substrate) | IC50 ([2]; 1 mM putrescine substrate) | IC50 (recombinant human VAP-1) | IC50 ([3]; 0.5 mM tyramine substrate) |
| --- | --- | --- | --- | --- | --- | --- | --- | --- |
| NC/C(=C/F)Cn1ncn(-c2c(F)cc(Br)cc2F)c1=O [Example 21, 2-[(2Z)-2-(aminomethyl)-3-fluoroprop-2-en-1-yl]-4-(4-bromo-2,6-difluorophenyl)-2,4-dihydro-3H-1,2,4-triazol-3-one hydrochloride] | 25 nM | 333 nM | 7.3 nM | 400 nM |  |  |  |  |
| NC/C(=C\F)Cn1ncn(-c2cccc(-c3ccc(-c4cnon4)cc3)n2)c1=O [Example 177, 2-[(2E)-2-(aminomethyl)-3-fluoroprop-2-en-1-yl]-4-{6-[4-(1,2,5-oxadiazol-3-yl)phenyl]pyridin-2-yl}-2,4-dihydro-3H-1,2,4-triazol-3-one hydrochloride] |  |  |  |  | 1900 nM | 2.6 nM | 0.5 nM | > 100000 nM |
| CC(=O)Nc1cc(-c2cnc(-n3cnn(C/C(=C/F)CN)c3=O)c(C)c2)ccn1 [Example 147, (E)-N-(6-(1-(2-(aminomethyl)-3-fluoroallyl)-5-oxo-1,5-dihydro-4H-1,2,4-triazol-4-yl)-5-methyl-[3,4′-bipyridin]-2′-yl)acetamide hydrochloride] | > 10000 nM | 450 nM | 0.55 nM | > 10000 nM |  |  |  |  |
| NC/C(=C\F)Cn1ncn(-c2cnc(-c3ccc(-c4nc[nH]n4)cc3)cn2)c1=O [Example 218, 2-[(2E)-2-(aminomethyl)-3-fluoroprop-2-en-1-yl]-4-{5-[4-(1H-1,2,4-triazol-3-yl)phenyl]pyrazin-2-yl}-2,4-dihydro-3H-1,2,4-triazol-3-one] |  |  |  |  | 49 nM | < 100 nM | 1.9 nM | > 100000 nM |
| NC/C(=C\F)Cn1ncn(-c2ncc(-c3ccc4c(c3)OCO4)cc2F)c1=O [Example 162, 2-[(2E)-2-(aminomethyl)-3-fluoroprop-2-en-1-yl]-4-[5-(1,3-benzodioxol-5-yl)-3-fluoropyridin-2-yl]-2,4-dihydro-3H-1,2,4-triazol-3-one hydrochloride] |  |  |  |  | 17 nM | 1.6 nM | 1.6 nM | 3140 nM |
